{"source": "paper PMC9961069", "about": "(Metabolites, 2023)", "key": {"DHFR in MDA-MB-468 cells": {"test_system": "T1, DHFR in MDA-MB-468 cells", "T1 construct": "reactions containing 55 μg MDA-MB-468 lysate; endogenous in cells; host or cells: MDA-MB-468", "test": "DHFR accumulation assay (Western blot)", "assay_type": "cell-based, Human", "conditions": "for Fold increase in DHFR levels: 24 h", "method": "Trypsinized MDA-MB-468 cells were seeded into 6-well plates at a density of 300,000 cells per 2 mL of media and allowed to adhere for 24 h. […] The final concentration of DMSO in each well was 1%. A DMSO-only control was also performed on each individual plate. Cells were then trypsinized, harvested by centrifugation at 200× g for 5 min at 4 °C, and washed once with PBS/PIC. Cell pellets were flash frozen using an ethanol/dry ice bath and stored at −80 °C prior to lysis. Each cell pellet was lysed as described above using 50 μL PBS/PIC per cell pellet. Samples were then analyzed by Western blot, as described below, using 30 μg lysate per lane. Band intensities of DHFR were normalized to the loading control SOD1 via densitometry using ImageJ (Fiji), and each DHFR band was normalized to the DMSO control. Fold-change in DHFR band intensity was plotted against inhibitor concentration (μM). Each experiment was performed two separate times as individual biological replicates (n = 2).\nProteins were electrophoretically separated on a 10% gel, and proteins were transferred to a methanol-activated PVDF membrane using the Trans-Blot Turbo transfer system (Bio-Rad) for 7 min at 1.3 A and 25 V in Trans-Blot Turbo transfer buffer (Bio-Rad). Membranes were blocked with 5% skim milk w/v in TBS-T (20 mM Tris, 150 mM NaCl, 0.05% Tween-20) for 1 h at room temperature. […] The horseradish peroxidase (HRP)-linked anti-mouse IgG secondary antibody (NA931, Cytiva; 1:3000) was added for 1 h at room temperature in 5% skim milk w/v in TBS-T. Signal was detected by adding Immobilon Forte Western HRP Substrate (Millipore), and chemiluminescence was captured on a Sapphire Biomolecular Imager (Azure Biosystems). Band densities were determined using ImageJ (Fiji). The band intensity of DHFR was normalized to the thermostable loading control SOD1 [22]."}, "[1]": {"test_system": "STAT3 transcriptional activity in U3A STAT3 luciferase reporter cell line", "test": "STAT3 luciferase reporter assay", "assay_type": "cell-based", "conditions": "for Inhibition of STAT3-dependent luciferase activity: 0.02–20 μM, OSM 10 ng/mL", "method": "The STAT3-dependent luciferase reporter assay was performed as previously reported. One day prior to the assay, the U3A STAT3 luciferase reporter cell line was seeded in a 96-well plate at 8000 cells per well. Cells were then incubated with compounds at the indicated concentration, and each well was treated with either media control or stimulated with 10 ng/mL oncostatin M (OSM) and incubated for six hours at 37 °C. Luciferase activity was quantified using the Bright-Glo Luciferase Assay system (Promega) and a Luminoskan Ascent Luminometer (Labsystems). Collected luminescence readings were normalized to DMSO-treated controls. Stimulation with (+OSM) gave luminescence values around 2.5 times that of the unstimulated control (−OSM). Quadruplicates were averaged and plotted with error bars representing standard deviation. Each condition was performed in quadruplicate on two separate occasions (n = 2) with representative data shown. Statistical significance was determined using Ordinary one-way ANOVA with a Dunnett multiple comparison test."}, "[2]": {"test_system": "T2, DHFR in MDA-MB-468 lysates", "T2 construct": "reactions containing 55 μg MDA-MB-468 lysate; endogenous in cells; host or cells: MDA-MB-468", "test": "Lysate cellular thermal shift assay (CETSA) for DHFR", "assay_type": "binding, Human", "conditions": "10 μM, MDA-MB-468 lysate, 45 °C for 3 min, DMSO at 37 °C = 100%"}}, "note": "Entries after “also recorded” stand apart in the source; their conditions may differ."}
{"smiles": "CC1(C)N=C(N)N=C(N)N1c1ccc(Cl)cc1", "note": "[Cyc, Cycloguanil]", "values": [{"measurement": "DHFR accumulation", "setting": "DHFR in MDA-MB-468 cells; MDA-MB-468, 24 h", "result": "required higher concentrations to induce DHFR accumulation; also recorded: failed to induce DHFR accumulation at low nM concentrations"}, {"measurement": "STAT3-dependent luciferase activity", "setting": "[1]; 20 nM, U3A", "result": "significantly inhibited"}, {"measurement": "Inhibition of STAT3-dependent luciferase activity", "setting": "[1]", "result": "potent inhibition of luciferase activity"}, {"measurement": "Normalized Band Density (%) of soluble DHFR", "setting": "[2]", "result": "greater than 100%"}, {"measurement": "Normalized Band Density (%) of soluble DHFR", "setting": "[2]; listed as Cycloguanil", "result": "125.67 ± 39.6", "unit": "%"}]}
{"smiles": "CCc1nc(N)nc(N)c1-c1ccc(Cl)cc1", "note": "[Pyr, Pyrimethamine]", "values": [{"measurement": "DHFR accumulation", "setting": "DHFR in MDA-MB-468 cells; MDA-MB-468, 24 h", "result": "required higher concentrations to induce DHFR accumulation"}, {"measurement": "Inhibition of STAT3-dependent luciferase activity", "setting": "[1]", "result": "do not reach full STAT3 inhibition until µM concentrations"}, {"measurement": "Normalized Band Density (%) of soluble DHFR", "setting": "[2]", "result": "greater than 100%"}, {"measurement": "Normalized Band Density (%) of soluble DHFR", "setting": "[2]; listed as Pyrimethamine", "result": "104.12 ± 33.5", "unit": "%"}]}
{"smiles": "CC1(C)N=C(N)N=C(N)N1c1ccc(CCCCc2ccc(S(=O)(=O)F)cc2)c(Cl)c1", "note": "[compound 127159]", "values": [{"measurement": "Fold increase in DHFR levels", "setting": "DHFR in MDA-MB-468 cells; MDA-MB-468, 10 nM", "result": 10, "unit": "fold"}, {"measurement": "Fold increase in DHFR levels", "setting": "DHFR in MDA-MB-468 cells; MDA-MB-468, 1 µM", "result": 30, "unit": "fold"}, {"measurement": "Concentration giving notable accumulation of DHFR", "setting": "DHFR in MDA-MB-468 cells; MDA-MB-468, 24 h, range 0.012–1 nM", "result": 0.33, "unit": "nM"}, {"measurement": "Inhibition of STAT3-dependent luciferase activity", "setting": "[1]", "result": "do not reach full STAT3 inhibition until µM concentrations"}, {"measurement": "Normalized Band Density (%) of soluble DHFR", "setting": "[2]", "result": "99.96 ± 26.2", "unit": "%"}]}
